Experimental data from US7220832B2, “Dermacentor variabilis GABA-gated chloride channels” (priority 2000, dated 2007).

Tested on: D. variabilis GABA-gated chloride channel
Test: Two-microelectrode voltage clamp recording of Xenopus laevis oocytes injected with Dv8, Dv9 or Dv5 mRNA
Format: cell-based, Dermacentor variabilis
Settings: for block of the GABA-activated current: current activated by 1 mM GABA; for current in response to application of compound: 1 mM, oocytes expressing Dv8 and Dv9 (SEQ. ID. NOs. 1 and 2), holding potential 0 or -30 mV
Method: Functional expression of a D. variabilis GABA-gated chloride channel was observed using MRNA encoding for the polypeptide of SEQ. ID. NOs. 1, 2, and 3 injected into Xenopus laevis oocytes. MRNA encoding for SEQ. ID. NOs. 1, 2, and 3 were obtained using the Dv8, Dv9, and Dv5 clones as described in Example 1.
Xenopus laevis oocytes were prepared and injected using standard methods previously described. (Arena et al., Mol. Pharmaco. 40:368-374, 1991; and Arena et al., Mol. Brain Res. 15:339-348, 1992.) Adult female Xenopus laevis were anesthetized with 0.17% tricaine methanesulfonate and the ovaries were surgically removed and placed in a solution consisting of (mM): NaCl 82.5, KCl 2, MgCl2 1, HEPES 5, NaPyruvate 2.5, Penicillin G. 100,000 units/L, Streptomycin Sulfate 1000 mg/L, pH 7.5 (Mod. OR-2).
Ovarian lobes were broken open, rinsed several times in Mod. OR-2, and incubated in 0.2% collagenase (Sigma, Type1) in Mod. OR-2 at room temperature with gentle shaking. After 1 hour the collagenase solution was renewed and the oocytes were incubated for an additional 30-90 minutes until approximately 50% of the oocytes were released from the ovaries. Stage V and VI oocytes were selected and placed in media containing (mM): NaCl 96, KCl 2, MgCl2 1, CaCl2 1.8, HEPES 5, NaPyruvate 2.5, theophylline 0.5, gentamicin […], pH 7.5 (ND-96) for 16-24 hours before injection. Oocytes were injected with 50 nl of Dv8, Dv9, or Dv5 RNA at a concentration of 0.2 mg/ml. Oocytes were incubated at 18° C. for 1-6 days in ND-96 before recording.
Recordings were made at room temperature in modified ND-96 consisting of (mM): NaCl 96, MgCl2 1, CaCl2 0.1, BaCl2 3.5, HEPES 5, pH 7.5. Oocytes were voltage clamped using a Dagan CA1 two microelectrode amplifier (Dagan Corporation, Minneapolis, Minn.) interfaced to a Macintosh 7100/80 computer. The current passing electrode was filled with 0.7 M KCl, 1.7 M KCitrate, and the voltage recording electrode was filled with 1 M KCl. Throughout the experiment oocytes were superfused with modified ND-96 (control solution) or with ND-96 containing potential channel activators and blockers at a rate of approximately 3 ml/min. Data were acquired at 100 Hz and filtered at 33.3 Hz using Pulse software from HEKA Elektronik (Lambrecht, Germany). All recordings were performed from a holding potential of either 0 or −30 mV.
During a 60s application of GABA approximately 50% of the current desensitized and the remaining current deactivated rapidly upon wash-out of GABA. Repeated applications of 1 mM GABA elicited similar responses. […] Oocytes injected with Dv5 mRNA responded similarly to oocytes injected with Dv8 and Dv9 mRNA (data not shown).

## N#Cc1nn(-c2c(Cl)cc(C(F)(F)F)cc2Cl)c(N)c1[S+]([O-])C(F)(F)F (centres unmarked) [fipronil]
5 μM, FIG. 5, channel of SEQ. ID. NO. 2 (Dv9)
  block of the GABA-activated current: blocked completely

## N[C@@H](CCC(=O)O)C(=O)O [glutamate]
  current in response to application of compound: did not activate a current

## NCCCC(=O)O [GABA, γ-Aminobutric acid]
  current in response to application of compound: rapidly activating current
60s application of 1 mM GABA, oocytes expressing Dv8 and Dv9
  fraction of the current desensitized during application: approximately 50%

## C=C(C)[C@@H]1[C@H]2OC(=O)[C@@H]1[C@]1(O)C[C@H]3O[C@]34C(=O)O[C@H]2[C@]14C [picrotoxinin]
10 μM, data not shown
  block of the GABA-activated current: blocked completely
